From ChEMBL document CHEMBL1201862, “PubChem BioAssay data set” (2004)
Active and inactive are the calls of the source.

Experiments:
Cytochrome P450 2D6 [1] = molecular target: T1, Cytochrome P450 2D6 (Homo sapiens, UniProt P10635); assay: qHTS Assay for Inhibitors and Substrates of Cytochrome P450 2D6. [Related pubchem assays: 410 ]; assay type: ADME; settings: read-out: Potency
Cytochrome P450 3A4 = Cytochrome P450 3A4 (Homo sapiens, UniProt P08684); settings: Potency;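 further: confirmatory qHTS run detecting inhibitors and substrates of CYP3A4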
Mucolipin-3 = molecular target: T2, Mucolipin-3 (Homo sapiens, UniProt Q8TDD5); assay: Dose response cell-based high-throughput screening assay for agonists of the transient receptor potential channel ML3 (TRPML3). [Related pubchem assays: 1526, 1424, 1448 ]; assay type: functional
T2 sequence (Q8TDD5 whole entry): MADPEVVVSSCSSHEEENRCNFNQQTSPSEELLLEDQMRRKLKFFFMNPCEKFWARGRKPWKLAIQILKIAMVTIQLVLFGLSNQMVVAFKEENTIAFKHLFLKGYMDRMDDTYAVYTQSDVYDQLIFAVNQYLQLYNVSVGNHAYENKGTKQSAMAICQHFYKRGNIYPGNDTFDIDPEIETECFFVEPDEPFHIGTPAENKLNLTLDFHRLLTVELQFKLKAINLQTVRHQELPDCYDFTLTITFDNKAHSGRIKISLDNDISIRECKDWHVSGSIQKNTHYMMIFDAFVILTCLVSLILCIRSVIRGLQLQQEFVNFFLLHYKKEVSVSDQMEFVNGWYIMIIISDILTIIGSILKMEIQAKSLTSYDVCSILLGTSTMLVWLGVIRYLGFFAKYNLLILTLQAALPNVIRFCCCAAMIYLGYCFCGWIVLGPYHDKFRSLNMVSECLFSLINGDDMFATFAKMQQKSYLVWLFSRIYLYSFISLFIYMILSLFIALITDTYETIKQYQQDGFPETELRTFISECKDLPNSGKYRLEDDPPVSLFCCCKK

Ion channel NompC = Ion channel NompC (Danio rerio, UniProt Q7T1G6); assay: Fluorescence counterscreen assay for TRPML3 agonists: dose response cell-based high-throughput screening assay to identify agonists of the transient receptor potential channel N1 (TRPN1). [Related pubchem assays: 1526, 1424, 1448 ]; assay type: functional
Sequence of Ion channel NompC (Q7T1G6 whole entry): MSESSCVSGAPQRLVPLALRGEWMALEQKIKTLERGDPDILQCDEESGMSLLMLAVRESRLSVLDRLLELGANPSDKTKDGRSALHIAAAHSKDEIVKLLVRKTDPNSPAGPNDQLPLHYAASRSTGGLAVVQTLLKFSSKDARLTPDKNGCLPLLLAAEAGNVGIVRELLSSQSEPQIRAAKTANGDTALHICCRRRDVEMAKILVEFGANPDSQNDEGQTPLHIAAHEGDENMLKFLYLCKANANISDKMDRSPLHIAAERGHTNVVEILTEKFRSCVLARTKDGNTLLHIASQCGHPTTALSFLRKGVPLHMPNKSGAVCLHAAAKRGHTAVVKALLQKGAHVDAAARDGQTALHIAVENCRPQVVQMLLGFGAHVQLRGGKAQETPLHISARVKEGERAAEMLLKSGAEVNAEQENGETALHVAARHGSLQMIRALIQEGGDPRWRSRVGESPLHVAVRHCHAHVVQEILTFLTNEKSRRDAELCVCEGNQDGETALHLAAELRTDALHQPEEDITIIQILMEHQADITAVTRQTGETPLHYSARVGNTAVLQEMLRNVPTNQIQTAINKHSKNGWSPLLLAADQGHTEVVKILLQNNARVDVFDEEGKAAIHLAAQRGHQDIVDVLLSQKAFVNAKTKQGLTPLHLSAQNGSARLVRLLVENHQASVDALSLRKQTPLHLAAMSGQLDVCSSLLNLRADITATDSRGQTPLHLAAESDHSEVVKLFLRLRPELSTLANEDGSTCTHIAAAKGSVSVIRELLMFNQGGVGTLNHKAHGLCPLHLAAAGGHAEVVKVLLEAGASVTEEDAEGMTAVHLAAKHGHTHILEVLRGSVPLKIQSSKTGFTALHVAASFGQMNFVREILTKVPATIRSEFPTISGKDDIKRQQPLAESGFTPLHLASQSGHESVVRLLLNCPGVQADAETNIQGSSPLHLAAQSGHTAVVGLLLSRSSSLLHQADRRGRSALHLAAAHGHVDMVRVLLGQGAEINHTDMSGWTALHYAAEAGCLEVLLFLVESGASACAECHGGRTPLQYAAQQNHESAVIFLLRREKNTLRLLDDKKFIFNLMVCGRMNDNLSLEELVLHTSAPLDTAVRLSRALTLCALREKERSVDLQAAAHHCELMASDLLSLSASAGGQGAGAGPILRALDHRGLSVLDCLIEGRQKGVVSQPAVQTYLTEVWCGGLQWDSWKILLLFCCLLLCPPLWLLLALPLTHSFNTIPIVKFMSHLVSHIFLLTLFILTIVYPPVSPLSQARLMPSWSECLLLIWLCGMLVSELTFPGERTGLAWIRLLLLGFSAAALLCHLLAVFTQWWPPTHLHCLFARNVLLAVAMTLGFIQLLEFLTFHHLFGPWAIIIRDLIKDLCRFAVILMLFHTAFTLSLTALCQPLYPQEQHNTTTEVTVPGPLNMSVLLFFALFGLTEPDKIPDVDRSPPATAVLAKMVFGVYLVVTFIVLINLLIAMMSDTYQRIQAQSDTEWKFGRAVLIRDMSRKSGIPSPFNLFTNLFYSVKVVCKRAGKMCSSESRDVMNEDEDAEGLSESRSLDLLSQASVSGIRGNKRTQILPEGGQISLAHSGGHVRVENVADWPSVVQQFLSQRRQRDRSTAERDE

Tumor necrosis factor = Tumor necrosis factor (Homo sapiens, UniProt P01375); assay: TNFa-triggered NF-kB activation inhibitors, SAR follow-up, cell-based, revised (AID 2337); assay type: functional
[2] = molecular target: T3, Nucleotide-binding oligomerization domain-containing protein 1 (Homo sapiens, UniProt Q9Y239); assay: NOD1 signaling inhibitors, SAR follow-up, revised (AID 2333); assay type: functional
T3 sequence (Q9Y239 whole entry): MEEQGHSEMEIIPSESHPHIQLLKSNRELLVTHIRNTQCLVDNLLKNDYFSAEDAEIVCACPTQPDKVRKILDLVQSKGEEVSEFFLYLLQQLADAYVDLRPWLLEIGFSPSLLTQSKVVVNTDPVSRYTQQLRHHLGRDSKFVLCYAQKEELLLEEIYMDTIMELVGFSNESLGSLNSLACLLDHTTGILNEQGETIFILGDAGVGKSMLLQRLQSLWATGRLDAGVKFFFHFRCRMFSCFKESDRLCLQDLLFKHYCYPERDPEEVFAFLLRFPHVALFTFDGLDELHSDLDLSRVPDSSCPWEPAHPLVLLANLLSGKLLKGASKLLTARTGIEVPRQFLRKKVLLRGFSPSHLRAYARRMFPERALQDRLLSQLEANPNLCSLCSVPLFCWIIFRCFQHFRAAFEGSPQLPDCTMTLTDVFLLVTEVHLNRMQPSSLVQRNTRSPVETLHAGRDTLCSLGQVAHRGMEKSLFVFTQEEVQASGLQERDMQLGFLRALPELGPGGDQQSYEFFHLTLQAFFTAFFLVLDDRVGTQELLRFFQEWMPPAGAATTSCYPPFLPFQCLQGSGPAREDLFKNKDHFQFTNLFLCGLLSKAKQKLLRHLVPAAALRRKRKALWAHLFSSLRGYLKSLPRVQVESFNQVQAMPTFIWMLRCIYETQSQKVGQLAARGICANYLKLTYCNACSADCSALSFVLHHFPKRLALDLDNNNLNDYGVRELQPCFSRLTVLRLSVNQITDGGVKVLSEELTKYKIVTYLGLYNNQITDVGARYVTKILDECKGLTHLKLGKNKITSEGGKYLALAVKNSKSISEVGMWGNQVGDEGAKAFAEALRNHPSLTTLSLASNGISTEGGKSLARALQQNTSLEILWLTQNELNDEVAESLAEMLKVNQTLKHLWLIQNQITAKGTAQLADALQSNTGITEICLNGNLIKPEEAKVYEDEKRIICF

[3] = molecular target: Nucleotide-binding oligomerization domain-containing protein 2 (Homo sapiens, UniProt Q9HC29); assay: PubChem AID 2334; assay type: functional
HEK293 = assay: cells; settings: Homo sapiens;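 further: cells exposed to compound for 14 hours overnight before viability readout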
[4] = molecular target: Eukaryotic translation initiation factor 4H (Homo sapiens, UniProt Q15056); assay: human eIF4H binding inhibitors, primary screen, translation initiation inhibitor project, biochemical, uHTS, fluorescence polarization (AID 2012)
Large T antigen = Large T antigen (Simian virus 40, UniProt P03070); assay type: functional, Betapolyomavirus macacae;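 further: Confirmatory-stage PubChem screen for compounds that inhibit SV40 T antigen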
[5] = molecular target: Polyadenylate-binding protein 1 (Homo sapiens, UniProt P11940); assay: PABP poly(A) RNA binding inhibitors, primary screen, biochemical, fluorescence polarization, uHTS (AID 2014)
Sequence of Polyadenylate-binding protein 1 (P11940 whole entry): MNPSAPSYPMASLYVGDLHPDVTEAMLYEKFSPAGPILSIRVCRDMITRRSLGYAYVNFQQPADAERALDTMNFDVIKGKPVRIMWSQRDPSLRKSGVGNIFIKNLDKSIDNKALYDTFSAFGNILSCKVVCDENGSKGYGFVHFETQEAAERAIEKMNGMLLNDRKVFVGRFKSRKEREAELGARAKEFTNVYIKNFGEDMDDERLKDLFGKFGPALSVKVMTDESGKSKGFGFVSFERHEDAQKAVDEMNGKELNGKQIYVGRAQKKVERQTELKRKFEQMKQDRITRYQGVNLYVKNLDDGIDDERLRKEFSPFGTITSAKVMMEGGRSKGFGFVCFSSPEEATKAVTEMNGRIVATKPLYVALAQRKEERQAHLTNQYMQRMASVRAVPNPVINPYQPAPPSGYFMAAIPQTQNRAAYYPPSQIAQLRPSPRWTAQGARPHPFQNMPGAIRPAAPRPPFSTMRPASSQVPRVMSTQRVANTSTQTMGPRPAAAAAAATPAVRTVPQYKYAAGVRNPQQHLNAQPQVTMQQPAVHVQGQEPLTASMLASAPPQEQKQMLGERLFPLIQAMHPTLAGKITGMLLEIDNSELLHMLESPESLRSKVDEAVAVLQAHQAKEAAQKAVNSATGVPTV

[6] = molecular target: Glucose-6-phosphate 1-dehydrogenase (Homo sapiens, UniProt P11413); assay: human G6PD enzyme inhibitors, dose response, selectivity assay for P. falciparum G6PD inhibitor project, biochemical, fluorescence (AID 504792); assay type: functional
Aminopeptidase N = molecular target: T4, Aminopeptidase N (Plasmodium falciparum FcB1/Columbia, UniProt O96935); assay: P. falciparum M1AAP inhibitors, biochemical, fluorogenic H-Leu-NHMec substrate, 1536-well (AID 1445); parameters: species or system Plasmodium falciparum 3D7, 3D7
T4 sequence (O96935 whole entry): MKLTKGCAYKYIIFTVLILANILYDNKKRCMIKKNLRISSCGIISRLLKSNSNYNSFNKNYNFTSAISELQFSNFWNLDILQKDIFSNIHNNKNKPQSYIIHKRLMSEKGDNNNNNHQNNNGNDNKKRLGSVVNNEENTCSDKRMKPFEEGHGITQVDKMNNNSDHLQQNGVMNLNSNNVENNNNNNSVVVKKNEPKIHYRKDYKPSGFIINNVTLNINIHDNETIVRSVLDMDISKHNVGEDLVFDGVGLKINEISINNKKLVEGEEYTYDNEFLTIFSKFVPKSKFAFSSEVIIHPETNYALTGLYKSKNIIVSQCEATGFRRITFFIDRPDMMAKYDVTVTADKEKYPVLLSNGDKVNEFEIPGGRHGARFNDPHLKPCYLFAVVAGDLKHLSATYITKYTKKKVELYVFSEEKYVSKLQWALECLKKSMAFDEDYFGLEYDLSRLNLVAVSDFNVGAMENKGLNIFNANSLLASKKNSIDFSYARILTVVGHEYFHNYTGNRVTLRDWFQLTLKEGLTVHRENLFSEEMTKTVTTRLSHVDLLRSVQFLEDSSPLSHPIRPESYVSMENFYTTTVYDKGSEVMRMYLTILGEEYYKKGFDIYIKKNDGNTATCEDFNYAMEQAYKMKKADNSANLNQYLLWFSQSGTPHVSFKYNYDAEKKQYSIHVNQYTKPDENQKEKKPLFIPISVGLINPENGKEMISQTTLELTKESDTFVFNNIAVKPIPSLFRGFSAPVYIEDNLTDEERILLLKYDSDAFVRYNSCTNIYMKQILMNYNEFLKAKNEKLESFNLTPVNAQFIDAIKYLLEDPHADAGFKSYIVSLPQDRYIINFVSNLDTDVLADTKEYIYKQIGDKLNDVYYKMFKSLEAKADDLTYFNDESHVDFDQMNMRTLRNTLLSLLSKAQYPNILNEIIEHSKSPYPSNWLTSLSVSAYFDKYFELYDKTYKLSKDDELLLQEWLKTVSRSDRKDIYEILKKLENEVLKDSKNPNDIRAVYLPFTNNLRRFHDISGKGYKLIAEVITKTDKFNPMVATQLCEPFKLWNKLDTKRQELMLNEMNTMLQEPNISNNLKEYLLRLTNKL

[7] = molecular target: Peroxisome proliferator-activated receptor gamma/Nuclear receptor coactivator 2 (Homo sapiens, UniProt P37231); assay type: functional;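 further: agonist potency for raising coactivator recruitment to the receptor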
Sequence of Peroxisome proliferator-activated receptor gamma/Nuclear receptor coactivator 2 (P37231 whole entry): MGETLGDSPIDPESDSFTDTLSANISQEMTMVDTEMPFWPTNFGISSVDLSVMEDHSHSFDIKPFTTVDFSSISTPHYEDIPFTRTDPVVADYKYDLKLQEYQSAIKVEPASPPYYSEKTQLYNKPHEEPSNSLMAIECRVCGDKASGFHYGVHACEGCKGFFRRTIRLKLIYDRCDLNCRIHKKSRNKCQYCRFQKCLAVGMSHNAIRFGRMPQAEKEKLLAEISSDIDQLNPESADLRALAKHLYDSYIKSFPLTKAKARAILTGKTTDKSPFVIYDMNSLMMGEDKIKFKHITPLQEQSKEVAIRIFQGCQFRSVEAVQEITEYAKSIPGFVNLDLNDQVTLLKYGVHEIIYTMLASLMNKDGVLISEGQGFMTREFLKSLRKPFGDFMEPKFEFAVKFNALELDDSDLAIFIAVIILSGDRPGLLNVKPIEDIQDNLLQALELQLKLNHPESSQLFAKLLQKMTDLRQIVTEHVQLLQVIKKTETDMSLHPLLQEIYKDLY
Sequence of Peroxisome proliferator-activated receptor gamma/Nuclear receptor coactivator 2 (Q15596 whole entry, further chain): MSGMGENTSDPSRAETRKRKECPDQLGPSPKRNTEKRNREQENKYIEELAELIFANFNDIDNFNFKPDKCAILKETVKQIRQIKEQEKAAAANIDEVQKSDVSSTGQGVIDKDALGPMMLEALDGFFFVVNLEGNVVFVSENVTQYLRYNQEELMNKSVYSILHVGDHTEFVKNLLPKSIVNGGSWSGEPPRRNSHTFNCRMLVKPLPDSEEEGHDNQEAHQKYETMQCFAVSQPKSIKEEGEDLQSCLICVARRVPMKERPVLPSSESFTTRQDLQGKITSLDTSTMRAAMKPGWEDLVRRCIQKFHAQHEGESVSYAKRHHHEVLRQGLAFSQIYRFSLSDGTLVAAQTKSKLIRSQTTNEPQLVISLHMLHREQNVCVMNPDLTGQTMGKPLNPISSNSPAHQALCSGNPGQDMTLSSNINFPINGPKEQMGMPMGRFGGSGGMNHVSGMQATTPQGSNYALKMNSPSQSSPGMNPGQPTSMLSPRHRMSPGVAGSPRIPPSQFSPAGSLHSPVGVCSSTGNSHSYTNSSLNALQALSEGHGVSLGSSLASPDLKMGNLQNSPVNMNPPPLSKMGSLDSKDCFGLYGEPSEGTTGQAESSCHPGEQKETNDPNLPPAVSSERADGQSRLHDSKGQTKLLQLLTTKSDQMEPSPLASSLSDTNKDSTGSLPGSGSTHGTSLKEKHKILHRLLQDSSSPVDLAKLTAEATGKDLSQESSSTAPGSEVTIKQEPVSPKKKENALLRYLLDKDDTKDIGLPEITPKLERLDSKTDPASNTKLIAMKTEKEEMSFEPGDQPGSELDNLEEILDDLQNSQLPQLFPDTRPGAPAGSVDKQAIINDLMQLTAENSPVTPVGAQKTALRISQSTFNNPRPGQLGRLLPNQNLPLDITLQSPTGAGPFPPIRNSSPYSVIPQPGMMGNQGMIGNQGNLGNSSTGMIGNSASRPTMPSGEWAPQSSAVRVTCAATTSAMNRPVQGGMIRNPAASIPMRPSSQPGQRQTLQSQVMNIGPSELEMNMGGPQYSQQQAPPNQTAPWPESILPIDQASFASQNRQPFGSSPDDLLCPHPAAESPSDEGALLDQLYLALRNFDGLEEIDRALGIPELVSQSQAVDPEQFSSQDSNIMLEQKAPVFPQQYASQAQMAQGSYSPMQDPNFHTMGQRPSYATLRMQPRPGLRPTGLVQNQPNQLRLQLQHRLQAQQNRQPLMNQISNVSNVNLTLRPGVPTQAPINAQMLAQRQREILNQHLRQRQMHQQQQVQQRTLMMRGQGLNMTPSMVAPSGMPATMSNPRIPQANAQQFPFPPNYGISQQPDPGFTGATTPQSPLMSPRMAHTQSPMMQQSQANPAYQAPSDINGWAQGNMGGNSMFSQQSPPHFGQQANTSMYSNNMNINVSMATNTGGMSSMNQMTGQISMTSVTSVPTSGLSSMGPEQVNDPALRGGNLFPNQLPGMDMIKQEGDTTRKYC

[8] = molecular target: Peroxisome proliferator-activated receptor gamma/Nuclear receptor coactivator 1 (Homo sapiens, UniProt P37231); assay type: functional;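 further: agonist potency as compounds enhance coactivator SRC-1 recruitment to PPARgamma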
[9] = tested on: Streptococcus sp. 'group A'; assay: growth inhibition of control SK(-) GAS strain, dose response, counter-screen for streptokinase expression inhibitor project, luminescence, kanamycin, BacTiterGlo, confirmation (AID 1900); assay type: functional, organism-based
[10] = molecular target: Peroxisome proliferator-activated receptor gamma/Nuclear receptor coactivator 3 (Homo sapiens, UniProt P37231); assay type: functional;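 further: agonist potency for raising coactivator recruitment to the receptor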
Streptokinase A = molecular target: T5, Streptokinase A (Streptococcus pyogenes serotype M1, UniProt P10520); assay: S. pyogenes streptokinase expression inhibitors, potency, dose response, plasminogen activation absorbance, OD405 (AID 1914); assay type: functional, Streptococcus pyogenes M1 GAS;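 further: secreted streptokinase activity via plasminogen activation per viability signal from cell pellet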
T5 sequence (P10520 whole entry): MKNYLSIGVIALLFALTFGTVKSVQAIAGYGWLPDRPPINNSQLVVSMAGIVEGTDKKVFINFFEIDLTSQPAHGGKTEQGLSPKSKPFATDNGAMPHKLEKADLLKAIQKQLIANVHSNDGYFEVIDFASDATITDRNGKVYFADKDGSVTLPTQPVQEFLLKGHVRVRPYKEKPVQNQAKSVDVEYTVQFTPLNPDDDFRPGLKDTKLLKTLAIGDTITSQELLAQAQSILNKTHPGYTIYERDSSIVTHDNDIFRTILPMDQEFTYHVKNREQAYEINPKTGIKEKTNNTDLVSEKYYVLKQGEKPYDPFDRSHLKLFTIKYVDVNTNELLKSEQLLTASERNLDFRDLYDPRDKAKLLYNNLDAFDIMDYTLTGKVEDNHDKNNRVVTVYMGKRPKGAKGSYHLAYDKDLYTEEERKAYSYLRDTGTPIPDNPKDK

[11] = inhibitors of intracellular T. cruzi replication, confirmation, NIH3T3 host cells, beta-gal luminescence (AID 2044); assay type: functional, cell-based;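 further: intracellular parasites grown in NIH/3T3 mouse fibroblasts as host cells; luminescent beta-galactosidase reporter signal from transgenic T. cruzi replicating inside host cells; inhibitors lower the luminescence signal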
[12] = cytotoxicity toward NIH3T3 fibroblasts, dose response, counter-screen, cell-based, ATP luminescence, mouse fibroblasts (AID 2010); assay type: functional;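 further: cells exposed to compound for about 90 hours before reading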
Streptococcus = assay: Group A Streptococcus viability loss, dose response, counter-screen for streptokinase expression inhibitor project, luminescence, BacTiterGlo (AID 1915); assay type: functional, organism-based;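 further: potency for reduction of bacterial viability or growth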
Cytochrome P450 2C19 = Cytochrome P450 2C19 (Homo sapiens, UniProt P33261); assay: Cytochrome panel assay with activity outcomes. Panel member name: p450-cyp2c19 Compounds with AC50 equal or less than 10 uM are considered active; assay type: functional; settings: read-out: AC50
Cytochrome P450 2D6 [13] = molecular target: T1, Cytochrome P450 2D6
[14] = molecular target: FAD-linked sulfhydryl oxidase ALR (Homo sapiens, UniProt P55789); assay: inhibitors of human ALR sulfhydryl oxidase, dose response, biochemical, H2O2 detection, luminescence, cherry-pick (AID 493248)
Sequence of FAD-linked sulfhydryl oxidase ALR (P55789 whole entry): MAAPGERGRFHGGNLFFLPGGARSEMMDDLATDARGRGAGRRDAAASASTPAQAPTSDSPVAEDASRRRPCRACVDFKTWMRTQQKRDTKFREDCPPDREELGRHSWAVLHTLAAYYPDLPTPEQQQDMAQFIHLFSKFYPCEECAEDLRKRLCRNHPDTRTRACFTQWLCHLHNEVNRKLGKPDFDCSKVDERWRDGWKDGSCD

Estrogen receptor beta [15] = molecular target: T6, Estrogen receptor beta (Homo sapiens, UniProt Q92731);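 further: recombinant ER-beta bound to coactivator SRC1 peptide in presence of estradiol agonist; inhibitors block coactivator peptide binding and lower the FRET signal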
Estrogen receptor beta [16] = molecular target: T6, Estrogen receptor beta; assay: ERβ–SRC-3 coactivator interaction inhibitors, confirmation, orthogonal assay, biochemical, ELISA, streptavidin-HRP readout (AID 1060)

T1 sequence (P10635 whole entry): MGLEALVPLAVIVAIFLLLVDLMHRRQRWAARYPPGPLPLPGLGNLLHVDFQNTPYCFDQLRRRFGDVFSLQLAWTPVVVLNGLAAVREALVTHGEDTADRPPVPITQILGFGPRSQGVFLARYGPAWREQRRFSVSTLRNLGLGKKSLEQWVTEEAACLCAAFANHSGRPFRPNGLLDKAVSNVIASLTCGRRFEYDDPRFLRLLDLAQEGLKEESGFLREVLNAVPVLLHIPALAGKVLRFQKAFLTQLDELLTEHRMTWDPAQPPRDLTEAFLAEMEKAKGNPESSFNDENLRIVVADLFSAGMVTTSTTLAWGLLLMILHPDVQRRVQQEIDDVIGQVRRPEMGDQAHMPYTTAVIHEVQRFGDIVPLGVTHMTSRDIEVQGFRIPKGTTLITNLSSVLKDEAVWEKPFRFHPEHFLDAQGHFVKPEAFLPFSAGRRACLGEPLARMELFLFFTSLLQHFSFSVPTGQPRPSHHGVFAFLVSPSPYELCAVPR

CC12C=C(/C=C/c3ccccc3)C(C)(C1)C(c1ccccc1)CC2=O (configuration not stated)
AC50 (Cytochrome P450 2D6 [1]): 3.16 µM (inconclusive)
AC50 (Cytochrome P450 3A4): 3.16 µM (inconclusive)

COc1ccc(S(=O)(=O)NC2CCCCC2)c(C)c1C
EC50 (Mucolipin-3): > 3.32 µM (not active)
EC50 (Ion channel NompC): > 29.9 µM (not active)

O=C(Nc1ccc(Cl)c(Cl)c1)c1ccc(CN2CCc3ccccc3C2)cc1
IC50 (Tumor necrosis factor): > 20 µM (inactive)
IC50 [2]: 0.891 µM (active)
IC50 [3]: > 20 µM (inactive)
IC50 (HEK293): 8.89 µM (active)

O=C(CN1CCN(c2ccc(O)cc2)CC1)Nc1cc(S(=O)(=O)N2CCOCC2)ccc1Cl
IC50 [4]: 72.2 µM (active)
IC50 (Large T antigen): 17 µM (active)
IC50 [5]: > 100 µM (inactive)
IC50 [6]: > 80 µM (inactive)

CC1(c2ccc(OC(F)F)cc2)NC(=O)N(CC(=O)Nc2ccc(S(N)(=O)=O)cc2)C1=O (configuration not stated)
IC50 (Aminopeptidase N): 28.3 µM (active)

C[N+]1(C)C2CCC1CC(OC(=O)c1ccco1)C2 (configuration not stated)
IC50 [4]: > 100 µM (inactive)
IC50 [5]: 7.77 µM (active)

CCC(=O)NC(=S)Nc1ccc(NC(=S)NC(=O)c2ccccc2)cc1
EC50 [7]: > 79.4 µM (not active)
EC50 [8]: > 79.4 µM (not active)
EC50 [9]: 1.23 µM (active)
EC50 [10]: > 79.4 µM (not active)
EC50 (Streptokinase A): > 150 µM (not active)
EC50 [11]: 0.553 µM (active)
EC50 [12]: > 60 µM (not active)
EC50 (Streptococcus): 38 µM (active)

Cc1cc2nc3c(=O)[nH]c(=O)nc-3n(CC(O)C(O)C(O)CO)c2cc1C (configuration not stated) [RIBOFLAVIN]
AC50 (Cytochrome P450 2D6 [1]): 31.6 µM (inconclusive)
AC50 (Cytochrome P450 2C19): 6.31 µM (inconclusive)
AC50 (Cytochrome P450 2D6 [13]): 12.6 µM (inconclusive)

O=C(Nc1ccc2oc(-c3ccncc3)nc2c1)c1c(F)c(F)c(F)c(F)c1F
EC50 [7]: 25.6 µM (not active)
EC50 [8]: 25.8 µM (not active)
EC50 [10]: 28.9 µM (not active)

O=C1NC(=S)NC(=O)C1=NNc1cc2c(cc1[N+](=O)[O-])OCO2
IC50 (Aminopeptidase N): 26.9 µM (active)

CC1(C)Cc2cccc(Oc3ccc(S(=O)(=O)N4CCCCC4)cn3)c2O1
EC50 (Mucolipin-3): 9.27 µM (active)
EC50 (Ion channel NompC): > 29.9 µM (not active)

CCN(CCNS(=O)(=O)c1ccc2nc(O)sc2c1)c1ccccc1
AC50 [14]: 1.17 µM (active)

O=C(CCCN1CCC2(CC1)C(=O)N(CCc1ccc(N=C=S)cc1)CN2c1ccccc1)c1ccc(F)cc1
AC50 (Cytochrome P450 2D6 [1]): 15.8 µM (inconclusive)

Cc1onc(-c2ccccc2)c1C(=O)N(Cc1ccco1)Cc1cccs1
EC50 (Mucolipin-3): 12.4 µM (not active)
EC50 (Ion channel NompC): > 29.9 µM (not active)

Cc1csc(C(C#N)C(=O)c2ccncc2)n1 (configuration not stated)
EC50 [7]: > 79.4 µM (not active)
EC50 [8]: > 79.4 µM (not active)
EC50 [10]: > 79.4 µM (not active)
IC50 (Estrogen receptor beta [15]): 13.9 µM (active)
IC50 (Estrogen receptor beta [16]): > 109 µM (not active)

O=C(c1ccco1)N1CCN=C1SCc1cccnc1
AC50 [14]: 1.19 µM (active)
